Test in all cases: cells
For one assay, the system named is NB12. The class given is functional, cell-based. Conditions: Homo sapiens.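 Also: growth inhibition of human NB12 cells, read out by a cell viability assay.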
In a further assay the test system is KU812 cell line. The class given is functional, cell-based, Homo sapiens. Conditions: Homo sapiens, KU812.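 Also: growth inhibition of KU812 cells, read out with a cell viability assay.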
A further assay has as its system KYSE-150 cell line. The assay is classed as functional, cell-based. Conditions: Homo sapiens.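 Also: growth inhibition of human KYSE-150 cells, read out with a cell viability assay.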
Another assay deals with KYSE-520 cell line. The assay is classed as functional, cell-based. Conditions: Homo sapiens.
The next assay has as its system KYSE-70 cell line. The class given is functional, cell-based. To be noted: Homo sapiens.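 Also: cell viability assay read-out, with IC50 expressing suppression of KYSE-70 cell growth.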
The test system of a further assay is LCLC-103H cell line. The class given is functional, cell-based. To be noted: Homo sapiens.
For the next assay, the system named is LXF-289 cell line. The class given is functional, cell-based. Conditions: Homo sapiens.
The test system of another assay is A253 cell line. The class given is functional, cell-based, Homo sapiens. Conditions: Homo sapiens, A253.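 Also: growth inhibition of A253 cells, read out with a cell viability assay.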
A further assay concerns COLO-800. The assay is classed as functional, cell-based, Homo sapiens. To be noted: Homo sapiens, COLO-800.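 Also: growth inhibition of COLO-800 cells, read out with a cell viability assay.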
The test system of the next assay is MHH-ES-1. The class given is functional, cell-based. Conditions: Homo sapiens.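 Also: cell growth inhibition measured by a cell viability assay.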
Another assay deals with NB69. The class given is functional, cell-based, Homo sapiens. To be noted: Homo sapiens, NB69.

Description for A253 cell line: SANGER: Inhibition of human A253 cell growth in a cell viability assay.
Description for COLO-800: SANGER: Inhibition of human COLO-800 cell growth in a cell viability assay.
Description for KU812 cell line: SANGER: Inhibition of human KU812 cell growth in a cell viability assay.
Description for KYSE-150 cell line: SANGER: Inhibition of human KYSE-150 cell growth in a cell viability assay.
Description for KYSE-520 cell line: SANGER: Inhibition of human KYSE-520 cell growth in a cell viability assay.
Description for KYSE-70 cell line: SANGER: Inhibition of human KYSE-70 cell growth in a cell viability assay.
Description for LCLC-103H cell line: SANGER: Inhibition of human LCLC-103H cell growth in a cell viability assay.
Description for LXF-289 cell line: SANGER: Inhibition of human LXF-289 cell growth in a cell viability assay.
Description for MHH-ES-1: SANGER: Inhibition of human MHH-ES-1 cell growth in a cell viability assay.
Description for NB12: SANGER: Inhibition of human NB12 cell growth in a cell viability assay.
Description for NB69: SANGER: Inhibition of human NB69 cell growth in a cell viability assay.

Broadly, the IC50 is the concentration at which inhibition is half-maximal. Lower therefore signals greater potency in that assay. Molecule `O=C1/C(=C/c2cccs2)CC/C1=C\c1cccs1` had an IC50 with NB12 of 1310 nM.

With `O=C(NOC[C@H](O)CO)c1ccc(F)c(F)c1Nc1ccc(I)cc1F` [MIRDAMETINIB], the IC50 in the assay on KU812 cell line was 203 nM; in the assay on KYSE-150 cell line it was 727 nM; in the assay on KYSE-520 cell line, 236 nM; with KYSE-70 cell line it was > 2000 nM; with LCLC-103H cell line, > 2000 nM; with LXF-289 cell line, > 2000 nM. The same molecule returned an IC50 in the assay with A253 cell line of 1260 nM.

With `CNCc1ccc(-c2[nH]c3cc(F)cc4c3c2CCNC4=O)cc1` [RUCAPARIB], the IC50 in the assay on COLO-800 is 632 nM; in the assay on MHH-ES-1, 501 nM; in the assay with NB69, 946 nM.

The values are drawn from ChEMBL document CHEMBL1201861, “Genomics of Drug Sensitity in Cancer screening data, Wellcome Trust Sanger Institute”.
